In patent publication US11524938B2, “Aromatic sulfonamide derivatives” (Bayer Pharma Aktiengesellschaft, priority 2016, dated 2022):
“And” between values parts separate entries of the source, which are not always exact repeats. Identical values can stand only once.

Target: T1, human P2X4 (Homo sapiens, UniProt Q99571)
T1 sequence (Q99571 1-388): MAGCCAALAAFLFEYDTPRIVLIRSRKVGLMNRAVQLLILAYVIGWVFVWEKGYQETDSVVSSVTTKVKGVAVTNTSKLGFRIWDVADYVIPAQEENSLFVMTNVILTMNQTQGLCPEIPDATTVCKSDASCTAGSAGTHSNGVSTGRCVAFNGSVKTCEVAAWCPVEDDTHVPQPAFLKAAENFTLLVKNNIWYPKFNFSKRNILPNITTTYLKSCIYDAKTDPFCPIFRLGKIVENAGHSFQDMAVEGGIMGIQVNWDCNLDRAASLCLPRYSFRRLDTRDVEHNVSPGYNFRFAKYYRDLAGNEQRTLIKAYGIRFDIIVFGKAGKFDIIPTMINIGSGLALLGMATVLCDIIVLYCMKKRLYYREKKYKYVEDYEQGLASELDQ
Experiment: Human P2X4 HEK Cell FLIPR Assay
Type: cell-based
Details: agonist Bz-ATP at EC80; for Emax: HEK293, HEK293 cells, percentage of maximal inhibition, read-out: Human P2X4 HEK Cells (FLIPR Assay) avg Efficacy [%]; for IC50: HEK293 cells, individual values listed where some fall outside detection range
How it was run: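 HEK293 cells stably expressing human P2X4, Fluo8-AM loaded 30 min at 37° C, then compound 30 min at room temperature (0.5% DMSO, pH 7.4 buffer with 1.8 mM CaCl2). Bz-ATP at its daily-determined EC80 added; calcium fluorescence read over 120 sec; IC50 from peak RFU normalized to agonist control, triplicates.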

Row | SMILES | Emax | IC50
1 | CCOC(=O)c1cnn(-c2ccc(NC(=O)Cc3ccccc3F)cc2S(N)(=O)=O)c1 [Example 236, Ethyl 1-(4-{[(2-fluorophenyl)acetyl]amino}-2-sulfamoylphenyl)-1H-pyrazole-4-carboxylate] | 54% | 36 nM
2 | NS(=O)(=O)c1cc(NC(=O)Cc2ccc(Cl)cc2)ccc1-n1cc(C(F)(F)F)cn1 [Example 108, 2-(4-Chlorophenyl)-N-{3-sulfamoyl-4-[4-(trifluoromethyl)-1H-pyrazol-1-yl]phenyl}-acetamide] | 35% | > 25000 nM
3 | COc1nc(-c2ccc(NC(=O)Cc3ccccc3Cl)cc2S(N)(=O)=O)cs1 [Example 421, 2-(2-Chlorophenyl)-N-[4-(2-methoxy-1,3-thiazol-4-yl)-3-sulfamoylphenyl]acetamide] | 86% | 680 nM
4 | C[C@@H]1CC[C@H](C)N1c1cnn(-c2ccc(NC(=O)Cc3ccccc3Cl)cc2S(N)(=O)=O)c1 [Example 511, 2-(2-Chlorophenyl)-N-(4-{4-[(cis)-2,5-dimethylpyrrolidin-1-yl]-1H-pyrazol-1-yl}-3-sulfamoylphenyl)acetamide] | 60% | 343 nM
5 | NS(=O)(=O)c1cc(NC(=O)Cc2ccccc2Cl)ccc1-n1ccc(C(F)(F)F)n1 [Example 11, 2-(2-Chlorophenyl)-N-{3-sulfamoyl-4-[3-(trifluoromethyl)-1H-pyrazol-1-yl]phenyl}-acetamide] | 31% | > 25000 nM
6 | NS(=O)(=O)c1cc(NC(=O)Cc2cccc(Cl)c2)ccc1-c1cncc(C(F)(F)F)c1 [Example 453, 2-(3-Chlorophenyl)-N-{3-sulfamoyl-4-[5-(trifluoromethyl)pyridin-3-yl]phenyl}acetamide] | 77% | 74 nM
7 | CCCNc1ncc(-c2ccc(NC(=O)Cc3ccccc3Cl)cc2S(N)(=O)=O)cn1 [Example 314, 2-(2-Chlorophenyl)-N-{4-[2-(propylamino)pyrimidin-5-yl]-3-sulfamoylphenyl}-acetamide] | 83% | 27 nM
8 | NS(=O)(=O)c1cc(NC(=O)Cc2ccccc2Cl)ccc1-c1cncc(OC(F)(F)F)c1 [Example 307, 2-(2-Chlorophenyl)-N-{3-sulfamoyl-4-[5-(trifluoromethoxy)pyridin-3-yl]phenyl}acetamide] | 62% | 115 nM
9 | NS(=O)(=O)c1cc(NC(=O)Cc2ccc(Cl)cc2)ccc1-c1cncc(C(F)(F)F)c1 [Example 444, 2-(4-Chlorophenyl)-N-{3-sulfamoyl-4-[5-(trifluoromethyl)pyridin-3-yl]phenyl}acetamide] | 77% | 635 nM
10 | Cn1cc(-c2ccc(NC(=O)Cc3ccccc3Cl)cc2S(N)(=O)=O)c(C(F)(F)F)n1 [Example 355, 2-(2-Chlorophenyl)-N-{4-[1-methyl-3-(trifluoromethyl)-1H-pyrazol-4-yl]-3-sulfamoylphenyl}acetamide] | 76% | 62 nM
11 | NS(=O)(=O)c1cc(NC(=O)Cc2ccccc2F)ccc1-c1cnn(C2CCNCC2)c1 [Example 270, 2-(2-Fluorophenyl)-N-{4-[1-(piperidin-4-yl)-1H-pyrazol-4-yl]-3-sulfamoylphenyl}acetamide] | 51% | > 25000 nM
12 | CC(C)(C)c1cc(-c2ccc(NC(=O)Cc3ccccc3Cl)cc2S(N)(=O)=O)n[nH]1 [Example 292, N-[4-(5-tert-Butyl-1H-pyrazol-3-yl)-3-sulfamoylphenyl]-2-(2-chlorophenyl)acetamide] | 87% | 58 nM
13 | NS(=O)(=O)c1cc(NC(=O)Cc2ccccc2Cl)ccc1-c1cnn(CC(F)F)c1 [Example 303, 2-(2-Chlorophenyl)-N-{4-[1-(2,2-difluoroethyl)-1H-pyrazol-4-yl]-3-sulfamoylphenyl}acetamide] | 91% | 97 nM
14 | COc1cccc(Cl)c1CC(=O)Nc1ccc(-n2cc(C#N)cn2)c(S(N)(=O)=O)c1 [Example 216, 2-(2-Chloro-6-methoxyphenyl)-N-[4-(4-cyano-1H-pyrazol-1-yl)-3-sulfamoyl-phenyl]acetamide] | 101% | 96 nM
15 | COc1ccc(CC(=O)Nc2ccc(-c3cncc(C(F)(F)F)c3)c(S(N)(=O)=O)c2)c(F)c1 [Example 457, 2-(2-Fluoro-4-methoxyphenyl)-N-{3-sulfamoyl-4-[5-(trifluoromethyl)pyridin-3-yl]phenyl}acetamide] | 70% | 558 nM
16 | N#Cc1cnn(-c2ccc(NC(=O)Cc3cc(F)ccc3Cl)cc2S(N)(=O)=O)c1 [Example 214, 2-(2-Chloro-5-fluorophenyl)-N-[4-(4-cyano-1H-pyrazol-1-yl)-3-sulfamoylphenyl]-acetamide] | 86% | 36 nM

Row | SMILES | Emax | IC50
17 | NS(=O)(=O)c1cc(NC(=O)Cc2ccccc2Cl)ccc1-c1cnc(C(F)(F)F)nc1 [Example 306, 2-(2-Chlorophenyl)-N-{3-sulfamoyl-4-[2-(trifluoromethyl)pyrimidin-5-yl]phenyl}acetamide] | 80% | 278 nM
18 | N#Cc1cnn(-c2cc(C(F)(F)F)c(NC(=O)Cc3ccccc3Cl)cc2S(N)(=O)=O)c1 [Example 484, 2-(2-Chlorophenyl)-N-[4-(4-cyano-1H-pyrazol-1-yl)-5-sulfamoyl-2-(trifluoromethyl)phenyl]acetamide] | 63% | 401 nM
19 | NS(=O)(=O)c1cc(NC(=O)Cc2ccccc2Cl)ccc1-n1cc2ccncc2n1 [Example 254, 2-(2-Chlorophenyl)-N-[4-(2H-pyrazolo[3,4-c]pyridin-2-yl)-3-sulfamoylphenyl]-acetamide] | 102% | 41 nM
20 | NS(=O)(=O)c1cc(NC(=O)Cc2cccnc2Cl)ccc1-n1cnc(C(F)(F)F)n1 [Example 239, 2-(2-Chloropyridin-3-yl)-N-{3-sulfamoyl-4-[3-(trifluoromethyl)-1H-1,2,4-triazol-1-yl]phenyl}acetamide] | 81% | 2590 nM
21 | NS(=O)(=O)c1cc(NC(=O)Cc2ccccc2Cl)ccc1-n1cc(NC(=O)CC(F)(F)F)cn1 [Example 507, N-[1-(4-{[(2-Chlorophenyl)acetyl]amino}-2-sulfamoylphenyl)-1H-pyrazol-4-yl]-3,3,3-trifluoropropanamide] | 86% | 180 nM
22 | N#Cc1cnn(-c2ccc(NC(=O)C(F)(F)c3ccccc3Cl)cc2S(N)(=O)=O)c1 [Example 220, 2-(2-Chlorophenyl)-N-[4-(4-cyano-1H-pyrazol-1-yl)-3-sulfamoylphenyl]-2,2-difluoroacetamide] | 108% | 276 nM
23 | NS(=O)(=O)c1cc(NC(=O)Cc2cccc(C(F)(F)F)c2Cl)c(C(F)(F)F)cc1-n1cc(F)cn1 [Example 536, 2-[2-Chloro-3-(trifluoromethyl)phenyl]-N-[4-(4-fluoro-1H-pyrazol-1-yl)-5-sulfamoyl-2-(trifluoromethyl)phenyl]acetamide] | 67% | 12400 nM and 16800 nM
24 | NS(=O)(=O)c1cc(NC(=O)Cc2ccccc2F)ccc1-n1nc2cc(F)cc(F)c2n1 [Example 479, N-[4-(4,6-Difluoro-2H-benzotriazol-2-yl)-3-sulfamoylphenyl]-2-(2-fluorophenyl)acetamide] | 79% | 145 nM
25 | NS(=O)(=O)c1cc(NC(=O)Cc2ccc(C(F)F)cc2)ccc1-n1cc(C(F)(F)F)nn1 [Example 411, 2-[4-(Difluoromethyl)phenyl]-N-{3-sulfamoyl-4-[4-(trifluoromethyl)-1H-1,2,3-triazol-1-yl]phenyl}acetamide] | 90% | 84 nM
26 | NS(=O)(=O)c1cc(NC(=O)Cc2ccccc2Cl)cc(Cl)c1-n1cc(C(F)(F)F)cn1 [Example 499, 2-(2-Chlorophenyl)-N-{3-chloro-5-sulfamoyl-4-[4-(trifluoromethyl)-1H-pyrazol-1-yl]phenyl}acetamide] | 69% | 347 nM
27 | Cn1nc(-c2ccc(NC(=O)Cc3ccccc3Cl)cc2S(N)(=O)=O)cc1C(C)(C)O [Example 288, 2-(2-Chlorophenyl)-N-{4-[5-(2-hydroxypropan-2-yl)-1-methyl-1H-pyrazol-3-yl]-3-sulfamoylphenyl}acetamide] | 68% | 275 nM
28 | CC(C)c1ccccc1CC(=O)Nc1ccc(-n2cc(C(F)(F)F)cn2)c(S(N)(=O)=O)c1 [Example 137, 2-(2-Isopropylphenyl)-N-{3-sulfamoyl-4-[4-(trifluoromethyl)-1H-pyrazol-1-yl]phenyl}-acetamide] | 89% | 1170 nM
29 | Cc1cc(-c2ccc(NC(=O)Cc3ccccc3Cl)cc2S(N)(=O)=O)sn1 [Example 424, 2-(2-Chlorophenyl)-N-[4-(3-methyl-1,2-thiazol-5-yl)-3-sulfamoylphenyl]acetamide] | 88% | 29 nM
30 | CC(C)(O)CCn1cc(-c2ccc(NC(=O)Cc3ccccc3Cl)cc2S(N)(=O)=O)cn1 [Example 287, 2-(2-Chlorophenyl)-N-{4-[1-(3-hydroxy-3-methylbutyl)-1H-pyrazol-4-yl]-3-sulfamoyl-phenyl}acetamide] | 78% | 31 nM
31 | NS(=O)(=O)c1cc(NC(=O)Cc2ccccc2Cl)cnc1-n1cc(F)cn1 [Example 385, 2-(2-Chlorophenyl)-N-[6-(4-fluoro-1H-pyrazol-1-yl)-5-sulfamoylpyridin-3-yl]acetamide] | 72% | 47 nM
